Here are results for 20 molecules from PubChem BioAssay AID330 (DTP/NCI, 2004).

For this test, the system named is P388 leukemia ip, CD2F1 mice, survival T/C. The test can be described thus: NCI In Vivo Anticancer Drug Screen. Data for tumor model P388 Leukemia (intraperitoneal) in CD2F1 (CDF1) mice. Conditions: endpoint: median survival time, higher = longer survival. In outline:
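Mice carrying the transplanted tumor received test compound or vehicle. Survival was recorded in each group, and the value is the treated-group measurement divided by that of the vehicle-treated control group.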

The mark [1] stands for this setting: dose: 12.5 mg/kg/injection, schedule: Q01DX009 (ip), vehicle: saline with Tween-80.
[2] abbreviates: dose: 25.0 mg/kg/injection, schedule: Q01DX009 (ip), vehicle: saline with Tween-80.
Where [3] appears, read: dose: 50.0 mg/kg/injection, schedule: Q01DX009 (ip), vehicle: Klucel (hydroxypropylcellulose) (HPC).
[4] abbreviates: dose: 50.0 mg/kg/injection, schedule: Q01DX009 (ip), vehicle: saline with Tween-80.
Where [5] appears, read: dose: 100.0 mg/kg/injection, schedule: Q01DX009 (ip), vehicle: saline with Tween-80.
The mark [6] stands for this setting: dose: 200.0 mg/kg/injection, schedule: Q01DX009 (ip), vehicle: saline with Tween-80.
[7] abbreviates: dose: 100.0 mg/kg/injection, schedule: Q01DX009 (ip), vehicle: Klucel (hydroxypropylcellulose) (HPC).
[8] abbreviates: dose: 200.0 mg/kg/injection, schedule: Q01DX009 (ip), vehicle: Klucel (hydroxypropylcellulose) (HPC).
The mark [9] stands for this setting: dose: 100.0 mg/kg/injection, schedule: Q01DX001 (ip), vehicle: saline with Tween-80.
Where [10] appears, read: dose: 200.0 mg/kg/injection, schedule: Q01DX001 (ip), vehicle: saline with Tween-80.
[11] abbreviates: dose: 400.0 mg/kg/injection, schedule: Q01DX001 (ip), vehicle: saline with Tween-80.
Setting [12] is: dose: 60.0 mg/kg/injection, schedule: Q01DX005 (ip), vehicle: saline with Tween-80.
The mark [13] stands for this setting: dose: 120.0 mg/kg/injection, schedule: Q01DX005 (ip), vehicle: saline with Tween-80.

Each structure is given as a SMILES string. Values joined by “and” are separate entries in the source; they are usually repeats but may differ in a detail not shown here. Equal values may be shown once. Toxic doses and inconclusive results are not listed.

Turning to `O=C1c2cc(Cl)ccc2-c2c(NC(=O)C(Cl)Cl)cc(Cl)cc21`, the T/C reads like this: under setting [1], 95 % of control; (dose: 25.0 mg/kg/injection, schedule: Q01DX009 (ip), vehicle: Klucel (hydroxypropylcellulose) (HPC)) 100 % of control; under setting [2], 95 % of control; under setting [3], 88 % of control; under setting [4], 100 % of control.
`CCOP(=O)(OCC)C(C)NC(=O)C(C)NC(=O)c1cn(CC)c2nc(C)ccc2c1=O` (stereo not given): the T/C is, setting by setting: (dose: 100.0 mg/kg/injection, schedule: Q04DX002 (ip), vehicle: saline) 97 % of control; (dose: 200.0 mg/kg/injection, schedule: Q04DX002 (ip), vehicle: saline) 97 % of control; (dose: 400.0 mg/kg/injection, schedule: Q04DX002 (ip), vehicle: saline) 95 % of control.
As for `COC(=O)C1(C)CCCC1=O` (stereo not given), the T/C (dose: 50.0 mg/kg/injection, schedule: Q01DX009 (ip), vehicle: other) was 96 % of control; the T/C (dose: 100.0 mg/kg/injection, schedule: Q01DX009 (ip), vehicle: other) was 95 % of control; the T/C (dose: 200.0 mg/kg/injection, schedule: Q01DX009 (ip), vehicle: other) was 99 % of control.
As for `COc1cc(OC)cc(N2C(N)=NC(N)=NC2(C)C)c1`, the T/C by setting is: (dose: 12.5 mg/kg/injection, schedule: Q01DX005 (ip), vehicle: Klucel (hydroxypropylcellulose) (HPC)) 104 % of control; (dose: 25.0 mg/kg/injection, schedule: Q01DX005 (ip), vehicle: Klucel (hydroxypropylcellulose) (HPC)) 105 % of control; (dose: 50.0 mg/kg/injection, schedule: Q01DX005 (ip), vehicle: Klucel (hydroxypropylcellulose) (HPC)) 102 % of control and 107 % of control.
Take `CCCCCC(=O)NC(Cc1ccc(N(CCCl)CCCl)cc1)C(=O)O` (stereo not given): the T/C was 100 % of control (dose: 1.3 mg/kg/injection, schedule: Q03HX008 (ip), vehicle: saline); 109 % of control (dose: 1.32 mg/kg/injection, schedule: Q01DX009 (ip), vehicle: saline); 110 % of control (dose: 2.6 mg/kg/injection, schedule: Q03HX008 (ip), vehicle: saline); 113 % of control (dose: 2.65 mg/kg/injection, schedule: Q01DX009 (ip), vehicle: saline); 120 % of control (dose: 5.3 mg/kg/injection, schedule: Q03HX008 (ip), vehicle: saline); 150 % of control (dose: 21.2 mg/kg/injection, schedule: Q03HX008 (ip), vehicle: saline).
Turning to `NC(=O)/C=C/C(N)=O`, the T/C is, setting by setting: under setting [1], 104 % of control; under setting [2], 98 % of control; under setting [4], 102 % of control; under setting [5], 107 % of control; (dose: 100.0 mg/kg/injection, schedule: Q04DX003 (ip), vehicle: saline with Tween-80) 90 % of control; under setting [6], 101 % of control. Also, the T/C (dose: 200.0 mg/kg/injection, schedule: Q04DX003 (ip), vehicle: saline with Tween-80) is 90 % of control.
Consider `COc1ccccc1NC(=O)C1=C(C)NC(C)=C(C(=O)Nc2ccccc2OC)C1c1cccc([N+](=O)[O-])c1`, for which the T/C was 92 % of control (dose: 60.0 mg/kg/injection, schedule: Q01DX005 (ip), vehicle: Klucel (hydroxypropylcellulose) (HPC)) and 88 % of control (dose: 120.0 mg/kg/injection, schedule: Q01DX005 (ip), vehicle: Klucel (hydroxypropylcellulose) (HPC)).
Regarding `O=C(/C=C/c1cccc(Cl)c1)c1ccccc1`, the T/C runs as follows: under setting [3], 102 % of control; under setting [7], 104 % of control; (dose: 150.0 mg/kg/injection, schedule: Q01DX009 (ip), vehicle: Klucel (hydroxypropylcellulose) (HPC)) 110 % of control; under setting [8], 122 % of control.
In the case of `COc1cc(CC2COC(O)C2(O)Cc2ccc(O)c(OC)c2)ccc1O` (stereo not given), the T/C (dose: 8.25 mg/kg/injection, schedule: Q01DX005 (ip), vehicle: Klucel (hydroxypropylcellulose) (HPC)) was 101 % of control; the T/C (dose: 16.5 mg/kg/injection, schedule: Q01DX005 (ip), vehicle: Klucel (hydroxypropylcellulose) (HPC)) was 101 % of control; the T/C (dose: 33.0 mg/kg/injection, schedule: Q01DX005 (ip), vehicle: Klucel (hydroxypropylcellulose) (HPC)) was 106 % of control; the T/C (dose: 66.0 mg/kg/injection, schedule: Q01DX005 (ip), vehicle: Klucel (hydroxypropylcellulose) (HPC)) was 92 % of control.
As for `O=C(c1ccccc1)N(CCO)CCO`, the T/C (dose: 50.0 mg/kg/injection, schedule: Q01DX009 (ip), vehicle: saline) is 108 % of control; the T/C (dose: 100.0 mg/kg/injection, schedule: Q01DX009 (ip), vehicle: saline) is 94 % of control; the T/C (dose: 200.0 mg/kg/injection, schedule: Q01DX009 (ip), vehicle: saline) is 101 % of control.
For the molecule `COc1cc(/C=N/NC(=O)C(N)Cc2ccc(O)cc2)ccc1O` (stereo not given), the T/C by setting is: (dose: 50.0 mg/kg/injection, schedule: Q01DX005 (ip), vehicle: saline with Tween-80) 100 % of control; (dose: 100.0 mg/kg/injection, schedule: Q01DX005 (ip), vehicle: saline with Tween-80) 94 % of control; (dose: 200.0 mg/kg/injection, schedule: Q01DX005 (ip), vehicle: saline with Tween-80) 103 % of control.
Take `Oc1ccc2ccccc2c1/C=N/c1nc(-c2ccc(Cl)cc2)cs1`: the T/C under setting [9] was 89 % of control, the T/C under setting [10] is 90 % of control and the T/C under setting [11] was 92 % of control.
For `CCOC(=O)N(NC(=O)Nc1ccccc1)C(c1ccccc1)c1ccccc1`, the T/C reads like this: (dose: 75.0 mg/kg/injection, schedule: Q01DX009 (ip), vehicle: saline with Tween-80) 94 % of control; (dose: 150.0 mg/kg/injection, schedule: Q01DX009 (ip), vehicle: saline with Tween-80) 94 % of control; (dose: 300.0 mg/kg/injection, schedule: Q01DX009 (ip), vehicle: saline with Tween-80) 98 % of control.
As for `CC([NH-])C(=O)O.[Cu+2].[NH-]C(Cc1cnc[nH]1)C(=O)O` (stereo not given), the T/C (dose: 25.0 mg/kg/injection, schedule: Q01DX009 (ip), vehicle: saline) was 97 % of control.
In the case of `CC(=O)Nc1ccsc1S(=O)(=O)c1sccc1NC(C)=O`, the T/C (dose: 100.0 mg/kg/injection, schedule: Q04DX002 (ip), vehicle: saline with Tween-80) is 100 % of control; the T/C (dose: 200.0 mg/kg/injection, schedule: Q04DX002 (ip), vehicle: saline with Tween-80) is 99 % of control; the T/C (dose: 400.0 mg/kg/injection, schedule: Q04DX002 (ip), vehicle: saline with Tween-80) was 98 % of control.
On to `Clc1ccc(C=Nc2ccc(N=Cc3ccc(Cl)cc3)cc2)cc1`, for which the T/C runs as follows: under setting [9], 90 % of control; under setting [10], 88 % of control; under setting [11], 87 % of control.
In the case of `O=C(O)c1cc2c([nH]1)-c1cccnc1C(=O)C2=O`, the T/C under setting [12] is 101 % of control; the T/C under setting [13] is 105 % of control; the T/C (dose: 240.0 mg/kg/injection, schedule: Q01DX005 (ip), vehicle: saline with Tween-80) is 101 % of control.
`COC1OC(COC(=O)c2ccccc2)C=C(OC(=O)c2ccccc2)C1=O` (stereo not given): the T/C by setting is: (dose: 6.25 mg/kg/injection, schedule: Q01DX009 (ip), vehicle: saline with Tween-80) 103 % of control; under setting [1], 105 % of control; under setting [2], 103 % of control; under setting [4], 102 % of control and 113 % of control and 114 % of control; under setting [5], 105 % of control and 92 % of control; under setting [6], 114 % of control and 96 % of control.
On to `Cc1[nH]nc2c(Cc3ccco3)n[nH]c(=O)c12`, for which the T/C by setting is: under setting [3], 101 % of control; under setting [7], 100 % of control; under setting [8], 100 % of control.
On to `CCCCCCC(=O)c1c(O)c2ccccc2oc1=O`, for which the T/C under setting [12] is 100 % of control and the T/C under setting [13] is 88 % of control.
